Columns and labels:
[1] = Inhibition of Plasmodium falciparum PFT
Plasmodium falciparum = assay: Antiplasmodial activity against Plasmodium falciparum 3D7; assay type: functional, organism-based
[2] = Inhibition of rat PFT

SMILES	pIC50 [1]	IC50 (Plasmodium falciparum) [nM]	pIC50 [2]
Cn1cncc1CN1CC(N(CC(=O)NC(C)(C)C)S(=O)(=O)c2nccn2C)Cc2cc(C#N)ccc21 (stereo unspecified)	8.1	> 5010	8.3
Cn1cnc(S(=O)(=O)N(Cc2ccc3ccccc3c2Br)C2Cc3cc(C#N)ccc3N(Cc3cncn3C)C2)c1 (stereo unspecified)	7.55	3020	6
Cn1cncc1CN1CC(N(CC(=O)NC(C)(C)C)S(=O)(=O)c2cccnc2)Cc2cc(C#N)ccc21 (stereo unspecified)	7.6	2690	8.22
Cn1cncc1CN1CC(N(CC(=O)NC(C)(C)C)S(=O)(=O)c2ccc(F)cc2)Cc2cc(C#N)ccc21 (stereo unspecified)	7.38	> 5010	8.12
Cn1cncc1CN1CC(N(Cc2cc3nsnc3cc2Cl)S(=O)(=O)c2ccccn2)Cc2cc(C#N)ccc21 (stereo unspecified)	7.26	3020	8
Cc1onc(-c2ccccc2)c1CN(C1Cc2cc(C#N)ccc2N(Cc2cncn2C)C1)S(=O)(=O)c1ccccn1 (stereo unspecified)	9.1	112	8.52
Cn1cncc1CN1CC(N(Cc2ccc3ccccc3c2Br)S(=O)(=O)c2ccccn2)Cc2cc(C#N)ccc21 (stereo unspecified)	6.78	2750	6.36
Cn1cncc1CN1CC(N(CC(=O)NC(C)(C)C)S(=O)(=O)c2ccncc2)Cc2cc(C#N)ccc21 (stereo unspecified)	6	> 5010	6.8

These reach a lower IC50 (Plasmodium falciparum). Values come first.

pIC50 [1]	IC50 (Plasmodium falciparum) [nM]	pIC50 [2]	SMILES
9.22	6.92	9.16	C=C(C)CN(C1Cc2cc(C#N)ccc2N(Cc2cncn2C)C1)S(=O)(=O)c1cn(C)cn1 (stereo unspecified)
9.22	5.01	8.92	Cn1cnc(S(=O)(=O)N(Cc2ccccc2)C2Cc3cc(C#N)ccc3N(Cc3cncn3C)C2)c1 (stereo unspecified)
9.05	5.01	8.92	Cn1cnc(S(=O)(=O)N(CC(=O)OC(C)(C)C)C2Cc3cc(C#N)ccc3N(Cc3cncn3C)C2)c1 (stereo unspecified)
8.82	55	8.47	Cc1ccccc1CN(C1Cc2cc(C#N)ccc2N(Cc2cncn2C)C1)S(=O)(=O)c1cn(C)cn1 (stereo unspecified)
8.55	51.3	8.42	Cn1cncc1CN1CC(N(Cc2ccccn2)S(=O)(=O)c2ccccn2)Cc2cc(C#N)ccc21 (stereo unspecified)
9.4	6.03	9.1	C=C(Br)CN(C1Cc2cc(C#N)ccc2N(Cc2cncn2C)C1)S(=O)(=O)c1cn(C)cn1 (stereo unspecified)
8.92	5.01	8.82	Cn1cnc(S(=O)(=O)N(CC(=O)NC(C)(C)C)C2Cc3cc(C#N)ccc3N(Cc3cncn3C)C2)c1 (stereo unspecified)
8.96	100	8.5	Cn1cnc(S(=O)(=O)N(CC2CCN(C(=O)OC(C)(C)C)CC2)C2Cc3cc(C#N)ccc3N(Cc3cncn3C)C2)c1 (stereo unspecified)
8.85	85.1	8.75	Cn1cncc1CN1CC(N(CC(=O)NC(C)(C)C)S(=O)(=O)c2ccccn2)Cc2cc(C#N)ccc21 (stereo unspecified)

Source: ChEMBL document CHEMBL1154458, “QSAR study on tetrahydroquinoline analogues as plasmodium protein farnesyltransferase inhibitors: a comparison of rationales of malarial and mammalian enzyme inhibitory activities for selectivity” (Eur J Med Chem, 2008)
